Data published in publication PMC4870834 (Biochemistry, 2015).

Assays:
Assay in all cases: intrinsic fluorescence titration
Format in all cases: binding
SULT1A1 [1] = molecular target: SULT1A1 (Homo sapiens, UniProt P50225)
SULT1A1 [2] = molecular target: SULT1A1 (Homo sapiens, UniProt P50225, V243G)
SULT1A1 [3] = molecular target: SULT1A1 (Homo sapiens, UniProt P50225, D249S)
SULT1A1 [4] = molecular target: SULT1A1 (Homo sapiens, UniProt P50225, F255A)
SULT1A1 [5] = molecular target: SULT1A1 (Homo sapiens, UniProt P50225, I89A)
SULT1A1 (Homo sapiens, UniProt P50225, I89A), sequence (P50225 whole entry I89A): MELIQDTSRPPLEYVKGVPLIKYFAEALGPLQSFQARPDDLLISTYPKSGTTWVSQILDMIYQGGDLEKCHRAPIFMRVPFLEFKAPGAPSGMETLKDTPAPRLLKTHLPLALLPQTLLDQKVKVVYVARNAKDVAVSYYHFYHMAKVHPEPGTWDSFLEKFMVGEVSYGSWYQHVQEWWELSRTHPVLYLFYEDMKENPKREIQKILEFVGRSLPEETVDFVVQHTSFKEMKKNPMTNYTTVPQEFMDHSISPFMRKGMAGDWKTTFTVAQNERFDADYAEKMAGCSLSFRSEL

SULT1A1 (Homo sapiens, UniProt P50225, F255A), sequence (P50225 whole entry F255A): as the sequence (P50225 whole entry I89A) above, with A89I, F255A counted along it
SULT1A1 (Homo sapiens, UniProt P50225), sequence (P50225 whole entry): as the sequence (P50225 whole entry I89A) above, with A89I counted along it
SULT1A1 (Homo sapiens, UniProt P50225, D249S), sequence (P50225 whole entry D249S): as the sequence (P50225 whole entry I89A) above, with A89I, D249S counted along it
SULT1A1 (Homo sapiens, UniProt P50225, V243G), sequence (P50225 whole entry V243G): as the sequence (P50225 whole entry I89A) above, with A89I, V243G counted along it

Row | Compound | Kd (SULT1A1 [1]) | Kd (SULT1A1 [2]) | Kd (SULT1A1 [3]) | Kd (SULT1A1 [4]) | Kd (SULT1A1 [5])
1 | Oc1ccc2ccccc2c1 [2-Nap] | 1.5 µM | 2.2 µM | 2.2 µM | 2 µM | 1.8 µM
2 | C[C@]12CC[C@@H]3c4ccc(O)cc4CC[C@H]3[C@@H]1CC[C@@H]2O [E2] |  | 0.9 µM | 0.9 µM | 0.9 µM | 1.5 µM
3 | Nc1ncnc2c1ncn2[C@@H]1O[C@H](COP(=O)(O)O)[C@@H](OP(=O)(O)O)[C@H]1O [PAP] | 0.27 µM | 0.28 µM | 0.3 µM | 0.27 µM | 0.31 µM
4 | C[C@]12CC[C@@H]3c4ccc(O)cc4C[C@@H](CCCCCCCCC[S+]([O-])CCCC(F)(F)C(F)(F)F)[C@H]3[C@@H]1CC[C@@H]2O (stereo partly shown) [fulvestrant] | 1.7 µM | 1.3 µM | 1.6 µM | 1.5 µM | 1.1 µM
